Consider one substance from PMC7357011, “Adenosine-5′-Phosphosulfate- and Sulfite Reductases Activities of Sulfate-Reducing Bacteria from Various Environments” (Biomolecules, 2020).

Experiment [1] has as its system T1, sulfite reductase (Desulfomicrobium sp. TC4).
T1 construct: gene dsrA; native enzyme in crude cell-free extract, not purified; NADH-oxidation read-out
The experiment in a line: NADH oxidation at […] nm, Lineweaver-Burk. It is filed as cell-based. To be noted: 0.2 mmol/L NADH, EDTA; Tris-HCl pH 7.5 (started with HCl); 27 °C.

Experiment [2] deals with T2, sulfite reductase (D. piger Vib-7).
T2 construct: gene dsrA; native enzyme in crude cell-free extract, not purified; NADH-oxidation read-out
Nature of the experiment: NADH oxidation at […] nm, Lineweaver-Burk. To be noted: 0.2 mmol/L NADH, EDTA; Tris-HCl pH 8.0 (started with HCl); 35 °C. The class given is cell-based, Desulfovibrio piger.

The test system of experiment [3] is T3, APS reductase (Desulfotomaculum sp. TC3).
T3 construct: gene aprA; native enzyme in crude cell-free extract, not purified; with Adenylylsulfate reductase subunit beta
Nature of the experiment: AMP-dependent ferricyanide reduction at […] nm, Lineweaver-Burk. The settings on record: reverse direction, EDTA, Tris-HCl pH 7.5, 27 °C, varied substrate sulfite (methods). The class given is cell-based.

In experiment [4] the target is T4, sulfite reductase (D. orale Rod-9) (Desulfomicrobium orale, UniProt A0A109W607+A0A109W618).
T4 construct: gene AXF15_07380; native enzyme in crude cell-free extract, not purified; NADH-oxidation read-out
T4 sequence (A0A109W618 1-437): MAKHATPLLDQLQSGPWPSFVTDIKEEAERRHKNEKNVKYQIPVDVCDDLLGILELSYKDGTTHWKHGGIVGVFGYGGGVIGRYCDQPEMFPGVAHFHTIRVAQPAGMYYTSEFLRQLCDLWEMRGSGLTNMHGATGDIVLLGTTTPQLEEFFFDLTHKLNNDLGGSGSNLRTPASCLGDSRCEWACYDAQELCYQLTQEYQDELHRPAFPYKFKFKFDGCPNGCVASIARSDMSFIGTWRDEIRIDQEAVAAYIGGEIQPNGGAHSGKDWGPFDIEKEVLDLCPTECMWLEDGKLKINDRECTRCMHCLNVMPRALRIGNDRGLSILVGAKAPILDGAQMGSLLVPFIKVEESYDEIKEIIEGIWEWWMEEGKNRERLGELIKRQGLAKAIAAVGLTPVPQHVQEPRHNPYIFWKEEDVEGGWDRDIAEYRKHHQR
T4 sequence (A0A109W607 1-386): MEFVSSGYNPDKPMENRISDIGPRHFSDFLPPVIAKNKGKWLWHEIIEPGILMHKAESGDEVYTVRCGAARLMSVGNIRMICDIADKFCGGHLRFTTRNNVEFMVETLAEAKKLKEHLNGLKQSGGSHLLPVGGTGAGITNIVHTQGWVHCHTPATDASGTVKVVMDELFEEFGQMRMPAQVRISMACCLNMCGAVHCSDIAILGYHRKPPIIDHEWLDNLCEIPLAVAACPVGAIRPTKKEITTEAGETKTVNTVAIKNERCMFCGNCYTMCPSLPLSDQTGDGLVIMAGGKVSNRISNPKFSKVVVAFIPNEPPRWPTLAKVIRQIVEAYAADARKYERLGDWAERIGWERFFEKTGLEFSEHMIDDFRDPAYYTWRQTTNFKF
Nature of the experiment: NADH oxidation at […] nm, Lineweaver-Burk. It is filed as cell-based. The settings on record: 0.2 mmol/L NADH, EDTA; Tris-HCl pH 8.0 (started with HCl); 35 °C.

In experiment [5] the test system is T5, sulfite reductase (D. vulgaris DSM644).
T5 construct: gene dsrA; native enzyme in crude cell-free extract, not purified; NADH-oxidation read-out
The experiment in a line: NADH oxidation at […] nm, Lineweaver-Burk. The settings on record: 0.2 mmol/L NADH, EDTA; Tris-HCl pH 7.5 (started with HCl); 27 °C. It is filed as biochemical, Nitratidesulfovibrio vulgaris.

Experiment [6] relates to T6, sulfite reductase (Desulfovibrio sp. TC2).
T6 construct: gene dsrA; native enzyme in crude cell-free extract, not purified; NADH-oxidation read-out
The experiment in a line: NADH oxidation at […] nm, Lineweaver-Burk. It is filed as cell-based. The settings on record: 0.2 mmol/L NADH, EDTA; Tris-HCl pH 7.5 (started with HCl); 27 °C.

Experiment [7] has as its system T7, APS reductase (Desulfomicrobium sp. TC4).
T7 construct: gene aprA; native enzyme in crude cell-free extract, not purified; with Adenylylsulfate reductase subunit beta
Nature of the experiment: AMP-dependent ferricyanide reduction at […] nm, Lineweaver-Burk. The class given is cell-based. To be noted: reverse direction, EDTA, Tris-HCl pH 7.5, 27 °C, varied substrate sulfite (methods).

Experiment [8] deals with T8, sulfite reductase (Desulfotomaculum sp. TC3).
T8 construct: gene dsrA; native enzyme in crude cell-free extract, not purified; NADH-oxidation read-out
The experiment in a line: NADH oxidation at […] nm, Lineweaver-Burk. To be noted: 0.2 mmol/L NADH, EDTA; Tris-HCl pH 7.5 (started with HCl); 27 °C. It is filed as biochemical.

Experiment [9] concerns T9, APS reductase (Desulfovibrio sp. TC2).
T9 construct: gene aprA; native enzyme in crude cell-free extract, not purified; with Adenylylsulfate reductase subunit beta
The experiment in a line: AMP-dependent ferricyanide reduction at […] nm, Lineweaver-Burk. The class given is cell-based. To be noted: reverse direction, EDTA, Tris-HCl pH 7.5, 27 °C, varied substrate sulfite (methods).

The target in experiment [10] is T10, APS reductase (D. desulfuricans DSM642) (Desulfovibrio desulfuricans, UniProt Q9L767).
T10 construct: gene aprB; native enzyme in crude cell-free extract, not purified; with Adenylylsulfate reductase subunit beta
T10 sequence (Q9L767 1-662): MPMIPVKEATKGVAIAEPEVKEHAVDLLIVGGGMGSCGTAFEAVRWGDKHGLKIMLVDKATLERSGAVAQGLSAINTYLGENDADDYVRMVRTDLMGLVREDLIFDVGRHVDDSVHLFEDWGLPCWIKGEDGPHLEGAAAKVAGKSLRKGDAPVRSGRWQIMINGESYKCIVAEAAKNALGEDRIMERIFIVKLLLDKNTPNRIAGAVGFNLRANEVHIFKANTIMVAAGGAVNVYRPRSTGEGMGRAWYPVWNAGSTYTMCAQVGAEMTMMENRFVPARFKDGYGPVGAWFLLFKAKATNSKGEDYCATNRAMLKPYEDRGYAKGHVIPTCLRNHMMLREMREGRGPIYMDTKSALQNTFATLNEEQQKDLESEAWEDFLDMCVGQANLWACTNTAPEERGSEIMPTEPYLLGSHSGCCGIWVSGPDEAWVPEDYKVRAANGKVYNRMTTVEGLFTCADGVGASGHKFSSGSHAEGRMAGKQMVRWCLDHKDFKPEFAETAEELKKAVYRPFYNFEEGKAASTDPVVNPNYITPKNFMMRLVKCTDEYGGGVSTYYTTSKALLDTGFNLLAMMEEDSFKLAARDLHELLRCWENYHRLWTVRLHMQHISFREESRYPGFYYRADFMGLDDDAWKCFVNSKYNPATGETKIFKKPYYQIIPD
T10 sequence (Q9L768 1-162 partner): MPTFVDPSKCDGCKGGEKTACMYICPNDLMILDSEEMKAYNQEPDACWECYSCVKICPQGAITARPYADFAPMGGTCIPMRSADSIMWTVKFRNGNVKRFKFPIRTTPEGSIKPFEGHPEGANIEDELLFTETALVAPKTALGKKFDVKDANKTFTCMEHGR
The description is as above. The class given is cell-based. The settings on record: reverse direction, EDTA, Tris-HCl pH 7.5, 27 °C, varied substrate sulfite (methods).

For experiment [11], the system named is T11, sulfite reductase (Desulfovibrio sp. 10).
T11 construct: gene dsrA; native enzyme in crude cell-free extract, not purified; NADH-oxidation read-out
The experiment in a line: NADH oxidation at […] nm, Lineweaver-Burk. It is filed as biochemical. The settings on record: 0.2 mmol/L NADH, EDTA; Tris-HCl pH 7.5 (started with HCl); 27 °C.

The test system of experiment [12] is T12, sulfite reductase (D. desulfuricans DSM642).
T12 construct: gene dsrA; native enzyme in crude cell-free extract, not purified; NADH-oxidation read-out
Nature of the experiment: NADH oxidation at […] nm, Lineweaver-Burk. It is filed as cell-based, Desulfovibrio desulfuricans. To be noted: 0.2 mmol/L NADH, EDTA; Tris-HCl pH 7.5 (started with HCl); 27 °C.

sulfite: the Km in experiment [1] turned out to be 19.4 mM; in experiment [2] it was 3.53 mM; in experiment [3], 1.49 mM; in experiment [4] it was 3.86 mM; in [5], 31.7 mM; in [6] it was 26.1 mM. For the same substance, the Km in [7] was found to be 1.1 mM; in [8], 46.2 mM; in experiment [9], 1.59 mM; in experiment [10], 2.12 mM; in experiment [11], 46.7 mM; in [12], 9.97 mM.
